From patent US20180064665A1 (UNIVERSITY-INDUSTRY COOPERATION GROUP OF KYUNG HEE …, priority 2015, published 2018)
Like-named read-outs stand apart in the source and are kept apart here.

Columns and labels:
Assay type in all cases: cell-based, mouse
PGE2 production = assay: Inhibitory activity on PGE2 production in LPS-treated Raw264.7 cells (PGE2 immunoassay); conditions: LPS 1 μg/mL; for IC50: mean of three measurements, read-out: Inhibition of PGE2 production IC50
Experimental: Raw264.7 cells (macrophage cell line from mouse) were obtained from Korean Cell Line Bank (KCLB) and cultured in Dulbecco's modified Eagle's medium (DMEM) containing 10% Fetal Bovine Serum (FBS), penicillin (100 units/mL), streptomycin sulfate (100 μg/mL) at 37° C. and 5% CO2 in humidified environment. RAW264.7 cells at 5×10^5 cells/mL were seeded at 1 mL/well in 24 wells using DMEM, left overnight, replaced with a fresh medium and then treated with a test compound of an appropriate concentration. The cells were incubated for 1 hr and then treated with LPS at 1 μg/mL and incubated for 24 hrs (or proper period). A supernatant was taken and diluted five times. 150 μL of an analysis buffer was added to Non Specific Binding (NSB) well, and 100 μL of an analysis buffer was added to zero point standard (B0) well. 100 μL of a standard sample was added to the other wells and 50 μL of PGE2 conjugate was added (excluding NSB). 50 μL of PGE2 antibody solution was added and wells were shaken for 2 hrs. Each well was suctioned and washed with a wash buffer five times. Each 200 μL of para-Nitrophenyl phosphate (pNPP) substrate was added to the all wells and the wells were stored in a bench at room temperature for 1 hr. 50 μL of stop solution was added and an absorbance was measured at 405 nm. The amount of PGE2 was quantified using the measured absorbance and a standard curve and compared to a group treated with LPS only to obtain a concentration inhibiting 50% (IC50). The results are shown in the following Table 1 and the presented values are means of three measurements.

Raw264.7 cells = assay: Measurement of cell viability (MTT); conditions: with LPS 1 μg/mL, 24 hrs, mean of three measurements, read-out: Cell viability (IC50 for cell toxicity)
Experimental: (§1) Raw264.7 cells (macrophage cell line from mouse) were obtained from Korean Cell Line Bank (KCLB) and cultured in Dulbecco's modified Eagle's medium containing 10% FBS, penicillin (100 units/ml), streptomycin sulfate (100 μg/ml) at 37° C. and 5% CO2 in humidified environment.
(§2) Cells were collected by centrifugation and scraping, and seeded at 1×10^5 cells/well in a 96 well plate containing 100 μl of RPMI 1640 medium with 10% FBS. 3β, 4β-epoxy-8α-isobutyryloxyguaia-1(10), 11, (13)-diene-12.6α-olide was dissolved in dimethylsulfoxide (DMSO) solvent and the concentration of DMSO was not more than 0.1% in all experiments. Next day, test compounds and LPS (1 μg/mL) were added and the plate were cultured for 24 hrs. After washing cells once, 50 μl of the medium containing 5 mg/ml MTT but without FBS was added and cells were cultured at 37° C. for 4 hrs. And then, the medium was removed, formazan blue formed in the cells was dissolved in 100 μl of DMSO, and an absorbance was measured at 540 nm to obtain IC50 values for cell toxicity. […] The results are shown in the above Table 1 and the values are means of three measurements.

[1] = Measurement of cell viability (MTT); conditions: mouse, Raw264.7 macrophage cells, Raw264.7 cells, with LPS 1 μg/mL, mean of three measurements, read-out: Cell viability (IC50 for cell toxicity)
Experimental: as §1, §2

Compound	IC50 (PGE2 production)	Inhibition of PGE2 production % (PGE2 production; compound at 0.1 μM)	IC50 (Raw264.7 cells)	also measured
CCc1ccc(OC(=O)NN(c2ccccc2)S(=O)(=O)c2ccc(OC)cc2)cc1 [Example 7, N-phenyl-N′-(4-ethylphenoxycarbonyl)-4-methoxyphenylsulfonhydrazide]	28.5 nM	90.9 (0.1) %	> 100 nM	
N-phenyl-N′-(4-benzyloxyphenoxycarbonyl)-2-mesitylenesulfonhydrazide [Example 17]	81.5 nM	60.0 (0.1) %	> 1000 nM	
Cc1ccc(S(=O)(=O)N(NC(=O)Oc2ccc3c(c2)CCC3)c2ccccc2)cc1 [Example 25, N-phenyl-N′-(2,3-dihydro-1H-inden-5-oxycarbonyl)-4-methylphenylsulfonhydrazide]	66.7 nM	40.4 (0.1) %	> 1000 nM	
N-phenyl-N′-(4-phenoxyphenoxycarbonyl)-2-mesitylenesulfonhydrazide [Example 16]	177 nM	39.8 (0.1) %	> 1000 nM	
COc1ccc(S(=O)(=O)N(NC(=O)Oc2ccc3c(c2)CCC3)c2ccccc2)cc1 [Example 9, N-phenyl-N′-(2,3-dihydro-1H-inden-5-oxycarbonyl)-4-methoxyphenylsulfonhydrazide]	4.5 nM		> 100 nM	Inhibition of PGE2 production % (PGE2 production; compound at 0.01 μM): 79.5 (0.01) %
CCOc1ccc(OC(=O)NN(c2ccccc2)S(=O)(=O)c2ccc(Cl)cc2)cc1 [Example 13, N-phenyl-N′-(4-ethoxyphenoxycarbonyl)-4-chlorophenylsulfonhydrazide]	5.02 nM		> 10000 nM	Inhibition of PGE2 production % (PGE2 production; compound at 0.01 μM): 74.8 (0.01) %
Cc1ccc(OC(=O)NN(c2ccccc2)S(=O)(=O)c2ccc(C)cc2)cc1 [Example 2, N-phenyl-N′-(4-methylphenoxycarbonyl)-4-methylphenylsulfonhydrazide]	1010 nM		> 10000 nM	Inhibition of PGE2 production % (PGE2 production; compound at 1 μM): 49.7 (1)^ %
O=C(NN(c1ccccc1)S(=O)(=O)c1ccc(Cl)cc1)Oc1ccc(OCc2ccccc2)cc1 [Example 15, N-phenyl-N′-(4-benzyloxyphenoxycarbonyl)-4-chlorophenylsulfonhydrazide]	3.42 nM		> 10000 nM	Inhibition of PGE2 production % (PGE2 production; compound at 0.01 μM): 84.5 (0.01) %
O=C(NN(c1ccccc1)S(=O)(=O)c1ccc(Cl)cc1)Oc1ccc2c(c1)CCC2 [Example 26, N-phenyl-N′-(2,3-dihydro-1H-inden-5-oxycarbonyl)-4-chlorophenylsulfonhydrazide]	70.5 nM	45.8 (0.1) %	> 1000 nM	
CC(C)c1ccc(S(=O)(=O)N(NC(=O)Oc2ccc(Oc3ccccc3)cc2)c2ccccc2)cc1 [Example 24, N-phenyl-N′-(4-phenoxyphenoxycarbonyl)-4-i-propylphenylsulfonhydrazide]	130 nM	65.4 (0.1) %	> 1000 nM	
O=C(NN(c1ccccc1)S(=O)(=O)c1ccc(Cl)cc1)Oc1ccccc1 [Example 10, N-phenyl-N′-phenoxycarbonyl-4-chlorophenylsulfonhydrazide]	5.42 nM		> 10000 nM	Inhibition of PGE2 production % (PGE2 production; compound at 0.01 μM): 81.8 (0.01) %
O=C(NN(c1ccccc1)S(=O)(=O)c1ccc(C(F)(F)F)cc1)Oc1ccc2c(c1)CCC2 [Example 27, N-phenyl-N′-(2,3-dihydro-1H-inden-5-oxycarbonyl)-4-trifluorophenylsulfonhydrazide]	55.8 nM	51.1 (0.1) %	> 1000 nM	
COc1ccc(S(=O)(=O)N(NC(=O)Oc2ccc(Oc3ccccc3)cc2)c2ccccc2)cc1 [Example 6, N-phenyl-N′-(4-phenoxyphenoxycarbonyl)-4-methoxyphenylsulfonhydrazide]	17.1 nM	93.4 (0.1) %	> 100 nM	
COc1ccccc1OC(=O)NN(c1ccccc1)S(=O)(=O)c1ccc(Cl)cc1 [Example 11, N-phenyl-N′-(2-methoxyphenoxycarbonyl)-4-chlorophenylsulfonhydrazide]	3.52 nM		> 10000 nM	Inhibition of PGE2 production % (PGE2 production; compound at 0.01 μM): 85.9 (0.01) %
CCCc1ccc(S(=O)(=O)N(NC(=O)Oc2ccc(Oc3ccccc3)cc2)c2ccccc2)cc1 [Example 20, N-phenyl-N′-(4-phenoxyphenoxycarbonyl)-4-n-propylphenylsulfonhydrazide]	134 nM	45.4 (0.1) %	> 10000 nM	
CC(C)(C)c1ccc(S(=O)(=O)N(NC(=O)Oc2ccc(OCc3ccccc3)cc2)c2ccccc2)cc1 [Example 22, N-phenyl-N′-(4-benzyloxyphenoxycarbonyl)-4-t-butylphenylsulfonhydrazide]	56.9 nM	69.8 (0.1) %	> 100 nM	
O=C(NN(c1ccccc1)S(=O)(=O)c1ccc(Cl)cc1)Oc1ccc(Oc2ccccc2)cc1 [Example 14, N-phenyl-N′-(4-phenoxyphenoxycarbonyl)-4-chlorophenylsulfonhydrazide]	5.09 nM		> 10000 nM	Inhibition of PGE2 production % (PGE2 production; compound at 0.01 μM): 67.8 (0.01) %
COc1ccccc1OC(=O)NN(c1ccccc1)S(=O)(=O)c1ccc(C)cc1 [Example 3, N-phenyl-N′-(2-methoxyphenoxycarbonyl)-4-methylphenylsulfonhydrazide]	34 nM	91.9 (0.1) %	> 100 nM	
O=C(Oc1ccccc1)N(NS(=O)(=O)c1ccccc1)c1ccccc1 [Comparative Example 1, N-phenyl-N′-(phenoxycarbonyl)-phenylsulfonhydrazide, reference compound]				IC50 (PGE2 production; Mus musculus): 5700 nM; inhibition at 10 µM (PGE2 production; Mus musculus, compound at 10 μM): 84.4%; IC50 at 24 h [1]: > 10000 nM
CC(C)(C)c1ccc(S(=O)(=O)N(NC(=O)Oc2ccc(Oc3ccccc3)cc2)c2ccccc2)cc1 [Example 23, N-phenyl-N′-(4-phenoxyphenoxycarbonyl)-4-t-butylphenylsulfonhydrazide]	99.6 nM	67.9 (0.1) %	> 1000 nM	
O=C(NN(c1ccccc1)S(=O)(=O)c1ccc(C(F)(F)F)cc1)Oc1ccc(OCc2ccccc2)cc1 [Example 21, N-phenyl-N′-(4-benzyloxyphenoxycarbonyl)-4-trifluoromethylphenylsulfonhydrazide]	47.1 nM	65.5 (0.1) %	> 100 nM	
Cc1ccc(S(=O)(=O)N(NC(=O)Oc2ccc(OCc3ccccc3)cc2)c2ccccc2)cc1 [Example 8, N-phenyl-N′-(4-benzyloxyphenoxycarbonyl)-4-methylphenylsulfonhydrazide]	32.6 nM	66.6 (0.1) %	> 100 nM	
COc1ccc(S(=O)(=O)N(NC(=O)Oc2ccc(OCc3ccccc3)cc2)c2ccccc2)cc1 [Example 4, N-phenyl-N′-(4-benzyloxyphenoxycarbonyl)-4-methoxyphenylsulfonhydrazide]	50 nM	62.8 (0.1) %	> 1000 nM	
CCc1ccc(OC(=O)NN(c2ccccc2)S(=O)(=O)c2ccc(Cl)cc2)cc1 [Example 12, N-phenyl-N′-(4-ethylphenoxycarbonyl)-4-chlorophenylsulfonhydrazide]	3.7 nM		> 10000 nM	Inhibition of PGE2 production % (PGE2 production; compound at 0.01 μM): 80.5 (0.01) %
Cc1cc(C)c(S(=O)(=O)N(Nc2ccccc2)C(=O)Oc2ccc3c(c2)CCC3)c(C)c1 [Example 28]				IC50 (PGE2 production; Mus musculus): 58.6 nM; inhibition at 0.1 µM (PGE2 production; Mus musculus, compound at 0.1 μM): 57.2%; IC50 at 24 h [1]: > 1000 nM
CCOc1ccc(OC(=O)NN(c2ccccc2)S(=O)(=O)c2ccc(OC)cc2)cc1 [Example 5, N-phenyl-N′-(4-ethoxyphenoxycarbonyl)-4-methoxyphenylsulfonhydrazide]	20.5 nM	94.1 (0.1) %	> 100 nM	
